Test results as given in PubChem BioAssay AID743417 (Broad Institute, 2014).
Inconclusive results are not listed. Calls of active or inactive are those of the source.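 Rule for the calls: active = compounds lowering the luciferase signal with a fitted half-maximal dose at most twice their top valid dose (cut at about 30 µM in these data); inconclusive = flat fits with moderate signal loss, or poor fits; inactive = the rest.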

Tested on: Clone20 osteoblast Shn3 3'UTR firefly luciferase, 24 h
Test: Shn3 3'UTR reporter inhibitors, dose response, cell-based, Clone20 osteoblasts, luminescence, dry powder, set 2 (AID 743417)

Question: With `CC[C@H](C)[C@H]1O[C@]2(CC[C@@H]1C)C[C@@H]1C[C@@H](CC=C(C)[C@@H](O[C@H]3C[C@H](OC)[C@@H](O[C@H]4C[C@H](OC)[C@@H](O)[C@H](C)O4)[C@H](C)O3)[C@@H](C)C=CC=C3CO[C@@H]4[C@H](O)C(C)=C[C@@H](C(=O)O1)[C@]34O)O2` as the compound, how does the AC50 read?
Answer: The AC50 was 6.32 µM.

Question: `CC(C)C1C(=O)N(Cc2cn(CCC3OCCO3)nn2)CCS(=O)(=O)N1Cc1ccc(-c2ccc(Cl)c(Cl)c2)cc1` (configuration not stated) was tested. Which AC50 did it give?
Answer: The AC50 was 1.28 µM.

Question: Which AC50 does the source give for `COc1cc(SC)ccc1C(=O)Nc1nc2ccccc2[nH]1` here?
Answer: Its AC50 is less than 0.26 µM.

Question: `CCCn1c(C)cc(C(=O)CN2C(=O)c3ccccc3S2(=O)=O)c1C` was tested. Which AC50 did it give?
Answer: The AC50 was 2.98 µM.

Question: For `O=C(CSc1nc(-c2ccco2)cc(C(F)(F)F)n1)Nc1ccc(C(=O)N2CCCCC2)cc1`, which AC50 is on record?
Answer: Its AC50 is 2.87 µM.

Question: For `CCOc1ccccc1NC(=O)c1nc(S(=O)(=O)Cc2cccc(C)c2)ncc1Cl`, which AC50 is on record?
Answer: Its AC50 is 0.324 µM.

Question: With `CCOc1cc(S(=O)(=O)NCc2ccncc2)ccc1Cl` as the compound, how does the AC50 read?
Answer: Its AC50 is less than 0.26 µM.

Question: With `CCOC(=O)CS(=O)(=O)c1nc(-c2ccc(F)cc2)cc(C(F)(F)F)n1` as the compound, how does the AC50 read?
Answer: Its AC50 is 1.78 µM.

Question: `Cc1ccc(-c2nc3cccnc3o2)cc1NC(=O)COc1ccc(C(C)(C)C)cc1` was tested. Which AC50 did it give?
Answer: Its AC50 is 10.8 µM.

Question: For `CCCC(=O)NC(c1cccs1)c1cc(Cl)c2cccnc2c1O` (configuration not stated), which AC50 is on record?
Answer: The AC50 was 3.16 µM.

Question: For `CCCCC(=O)NC(c1ccc(Cl)cc1Cl)c1ccc2cccnc2c1O` (configuration not stated), which AC50 is on record?
Answer: Its AC50 is 0.67 µM.

Question: Which AC50 does the source give for `CC(C)=CCc1cc([C@@H]2COc3c(ccc4c3C=CC(C)(C)O4)C2)c(O)cc1O` here?
Answer: Its AC50 is 7.54 µM.

Question: Which AC50 does the source give for `Cn1c2c(c(=O)n(C)c1=O)C(C(F)(F)F)(C(F)(F)F)N=C(c1ccc(Cl)cc1)N2` here?
Answer: Its AC50 is 1.47 µM.

Question: Which AC50 does the source give for `CC(=O)N1CCN(c2ccc(NC(=O)c3ccc([N+](=O)[O-])o3)cc2Cl)CC1` here?
Answer: The AC50 was 1.08 µM.

Question: With `CN1C(=O)c2cccc(NCCCCCCN3C(=O)c4ccccc4C3=O)c2C1=O` as the compound, how does the AC50 read?
Answer: The AC50 was 5.57 µM.

Question: For `CC(C)(C)C(=O)/C(=C/c1ccc(Cl)cc1)n1cncn1`, which AC50 is on record?
Answer: The AC50 was 3.75 µM.

Question: With `COc1ccc(S(=O)(=O)N2CCN(c3cc(-c4ccccc4)nc4ncnn34)CC2)cc1` as the compound, how does the AC50 read?
Answer: The AC50 was 3.89 µM.

Question: For `CCc1ccc(-n2c(O)c(C=NCCN(CC)CC)c(=O)[nH]c2=O)cc1`, which AC50 is on record?
Answer: Its AC50 is > 70 µM (inactive).

Question: With `CC(Sc1nc2ccccc2c(=O)n1C)C(=O)NC1CCCCC1C` (configuration not stated) as the compound, how does the AC50 read?
Answer: Its AC50 is 3.46 µM.

Question: For `O=C1S/C(=C\c2ccc(N3CCOCC3)o2)C(=O)N1Cc1c(F)cccc1Cl`, which AC50 is on record?
Answer: Its AC50 is 6.72 µM.

Question: `O=C(Nc1ccc([N+](=O)[O-])cc1)C(=O)Nc1cccc(C(=O)O)c1` was tested. Which AC50 did it give?
Answer: Its AC50 is 4.21 µM.

Question: How did the AC50 turn out when `Cc1ccc(CS(=O)(=O)c2ncc(Cl)c(C(=O)Nc3ccc(OC(F)F)cc3)n2)cc1` was run?
Answer: The AC50 was 2.34 µM.

Question: `CCc1cc2c(N3CCN(c4ccccc4)CC3)ncnc2s1` was tested. Which AC50 did it give?
Answer: The AC50 was 6.18 µM.

Question: For `C=CCn1c(SCC(=O)c2[nH]c(C)c(C(=O)OC)c2C)nc2scc(-c3ccc(OC)c(OC)c3)c2c1=O`, which AC50 is on record?
Answer: Its AC50 is 2.01 µM.

Question: For `Oc1c(C(Nc2ccccn2)c2ccccn2)ccc2cccnc12` (configuration not stated), which AC50 is on record?
Answer: The AC50 was 4.36 µM.

Question: `CCOC(=O)c1ccc(NC(=O)c2nc[nH]c2C(=O)NCCNC(=O)c2[nH]cnc2C(=O)Nc2ccc(C(=O)OCC)cc2)cc1` was tested. Which AC50 did it give?
Answer: The AC50 was 5.51 µM.

Question: `CCCC(=O)NC(c1cccc([N+](=O)[O-])c1)c1ccc2cccnc2c1O` (configuration not stated) was tested. Which AC50 did it give?
Answer: The AC50 was 1.75 µM.

Question: For `Cc1nc2ccccc2c2oc(C(=O)N3CCN(C4CCCCC4)CC3)cc12`, which AC50 is on record?
Answer: Its AC50 is 7.02 µM.

Question: `OC[C@@H]1CN(Cc2ccc(-c3ccccc3)cc2)C[C@H](n2cnc3c(NCc4ccc(F)cc4)ncnc32)O1` was tested. Which AC50 did it give?
Answer: Its AC50 is 1.58 µM.

Question: Which AC50 does the source give for `Cn1c(/C=C/c2ccc([N+](=O)[O-])o2)nc2ccccc2c1=O` here?
Answer: The AC50 was 2.37 µM.

Question: Which AC50 does the source give for `CN(C)c1ccc(/C=C/c2nc3ccccc3s2)cc1` here?
Answer: Its AC50 is 0.494 µM.

Question: For `CCOC(=O)N1CCC(NC(=O)C2CCCN(Cc3nc(-c4cccc(Cl)c4)oc3C)C2)CC1` (configuration not stated), which AC50 is on record?
Answer: The AC50 was 9.5 µM.

Question: `Cn1nc(CC(=O)Nc2ccc3c(c2)OCCO3)c2ccccc2c1=O` was tested. Which AC50 did it give?
Answer: The AC50 was 0.899 µM.

Question: `C/C1=C\[C@@H](C)C/C=C/[C@H]2[C@@H]3O[C@]3(C)[C@@H](C)[C@H]3[C@H](Cc4c[nH]c5ccccc45)NC(=O)[C@]32C(=O)/C=C/C(=O)[C@@H]1O` was tested. Which AC50 did it give?
Answer: Its AC50 is 6.44 µM.

Question: Which AC50 does the source give for `CCCCn1c(CN2CCN(c3ccc(F)cc3)CC2)nc2c1c(=O)n(C)c(=O)n2C` here?
Answer: Its AC50 is 2.73 µM.

Question: Which AC50 does the source give for `CCCOc1ccccc1C1CC(=O)Nc2cc3c(cc21)OCO3` (configuration not stated) here?
Answer: The AC50 was 5.72 µM.

Question: For `COc1ccc(CCNC(=O)CCC(=O)N2CCOc3ccc(Cl)cc32)cc1OC`, which AC50 is on record?
Answer: The AC50 was > 70 µM (inactive).

Question: How did the AC50 turn out when `CN(CCOc1ccc(Cl)cc1)C(=O)c1cccc(S(=O)(=O)N2CCN(c3ccc(F)cc3)CC2)c1` was run?
Answer: Its AC50 is 1.77 µM.

Question: `CS(=O)(=O)c1ccc(C(=O)OCC(=O)Nc2cccnc2Cl)cc1[N+](=O)[O-]` was tested. Which AC50 did it give?
Answer: Its AC50 is 9.09 µM.

Question: Which AC50 does the source give for `Cc1cc(C)n2nc(SCC(=O)c3cc(C)n(-c4cc(C)on4)c3C)nc2n1` here?
Answer: Its AC50 is 2.46 µM.

Question: `CCCC(=O)NC(=S)Nc1ccc(N2CCN(C(=O)c3cccs3)CC2)cc1` was tested. Which AC50 did it give?
Answer: Its AC50 is 10.1 µM.

Question: For `CC(C)c1ccc(NC(=O)Nc2nc(C(N)COCc3ccccc3)cs2)cc1` (configuration not stated), which AC50 is on record?
Answer: The AC50 was 5.99 µM.

Question: `Cc1cc(C)nc(SCC(=O)Nc2ccc(N3CCOCC3)c(Cl)c2)n1` was tested. Which AC50 did it give?
Answer: The AC50 was 1.66 µM.

Question: How did the AC50 turn out when `CC(C)(C)C(=O)/C(=C/c1ccncc1)n1cncn1` was run?
Answer: The AC50 was 3.27 µM.

Question: How did the AC50 turn out when `CCCCC(=O)NC(c1ccc(N(C)C)cc1)c1ccc2cccnc2c1O` (configuration not stated) was run?
Answer: Its AC50 is 0.98 µM.

Question: How did the AC50 turn out when `O=[N+]([O-])c1cccc(S(=O)(=O)NCc2ccncc2)c1` was run?
Answer: The AC50 was 3.09 µM.

Question: With `CCn1c(CNC(=O)c2cc(OC)c(OC)c(OC)c2)cc2cc(C)ccc21` as the compound, how does the AC50 read?
Answer: Its AC50 is 2.52 µM.

Question: Which AC50 does the source give for `CCCCn1c(-c2nonc2NC(=O)c2ccccc2Cl)nc2ccccc21` here?
Answer: The AC50 was 1.39 µM.

Question: For `Cc1ccc(-c2csc(N3CCC(NS(=O)(=O)c4ccc5c(c4)OCCO5)CC3)n2)cc1`, which AC50 is on record?
Answer: The AC50 was 2.15 µM.

Question: For `Cn1cnc([N+](=O)[O-])c1S(=O)(=O)Oc1ccccc1`, which AC50 is on record?
Answer: The AC50 was 3.83 µM.

Question: With `Cc1ccccc1C(=O)N1CCN(c2ccc(NC(=O)CSc3ccc(Cl)cc3)cc2)CC1` as the compound, how does the AC50 read?
Answer: The AC50 was 4.23 µM.

Question: How did the AC50 turn out when `O=C(Nc1ccc(F)c(F)c1)c1ccc(F)c(S(=O)(=O)N2CCC3(CC2)OCCO3)c1` was run?
Answer: The AC50 was 12.2 µM.

Question: With `CC[C@H]1CN2CCc3cc(OC)c(OC)cc3[C@@H]2C[C@@H]1C[C@H]1NCCc2cc(OC)c(OC)cc21` as the compound, how does the AC50 read?
Answer: The AC50 was less than 0.26 µM.

Question: With `O=C(/C=C/c1ccc(OCc2ccccc2)c(OCc2ccccc2)c1)c1cccnc1` as the compound, how does the AC50 read?
Answer: Its AC50 is 5.19 µM.

Question: Which AC50 does the source give for `Cc1cc(C(=O)COC(=O)c2ccccc2Br)c(C)n1CC1CCCO1` (configuration not stated) here?
Answer: Its AC50 is > 70 µM (inactive).

Question: For `CCCCCCCNC(=O)C1(CC2CC(c3cccc(Br)c3)=NO2)CCNCC1` (configuration not stated), which AC50 is on record?
Answer: The AC50 was 11.7 µM.

Question: `O=C1CCc2cccc(O)c2N1` was tested. Which AC50 did it give?
Answer: Its AC50 is 12.2 µM.

Question: How did the AC50 turn out when `CC(C)NCC(O)COc1cccc2ccccc12` (configuration not stated) was run?
Answer: The AC50 was 23.6 µM.

Question: Which AC50 does the source give for `CC(CCc1ccccc1)NC(=O)COC(=O)c1ccc(S(C)(=O)=O)c([N+](=O)[O-])c1` (configuration not stated) here?
Answer: Its AC50 is 3.34 µM.

Question: `CCOC(=O)c1cnc(-n2nc(C)cc2C)nc1NC1CCCCC1` was tested. Which AC50 did it give?
Answer: The AC50 was 3.01 µM.

Question: How did the AC50 turn out when `COc1ccc2c(c1OC)C(=O)N1c3ccccc3C(=O)N(c3ccccc3F)C21` (configuration not stated) was run?
Answer: Its AC50 is 11.6 µM.

Question: `C=CS(=O)(=O)c1sc(Cl)c(N2CCOCC2)c1[N+](=O)[O-]` was tested. Which AC50 did it give?
Answer: The AC50 was 1.31 µM.

Question: With `CC(C)NS(=O)(=O)c1ccc(CCC(=O)Nc2cc(Cl)ccc2Oc2ccccc2)cc1` as the compound, how does the AC50 read?
Answer: Its AC50 is 7.65 µM.

Question: `CC(C)C[C@H]1CNC(=S)N1CC1CCN(CC2CCC(C(C)(C)C)CC2)CC1` (some centres not stated) was tested. Which AC50 did it give?
Answer: Its AC50 is 4.05 µM.

Question: For `Oc1c(C(Nc2cccc(C(F)(F)F)c2)c2ccncc2)ccc2cccnc12` (configuration not stated), which AC50 is on record?
Answer: The AC50 was 5.8 µM.

Question: Which AC50 does the source give for `Nc1nc(N)c2cc(Sc3cccc(C(F)(F)F)c3)ccc2n1` here?
Answer: The AC50 was 4.87 µM.

Question: With `C=CCn1c(C)cc(C2=NNC(=NCC)SC2)c1C` as the compound, how does the AC50 read?
Answer: Its AC50 is less than 0.26 µM.

Question: With `Cn1cc([N+](=O)[O-])c(C(=O)Nc2sc3c(c2C#N)CCC3)n1` as the compound, how does the AC50 read?
Answer: Its AC50 is 0.88 µM.

Question: `CC1CCN(c2ccc(-c3cccc(NC(=O)C(F)(F)F)c3)nn2)CC1` was tested. Which AC50 did it give?
Answer: Its AC50 is 2.74 µM.

Question: `CCOC(=O)C1(CCOc2ccccc2)CCN(Cc2ccc(OC)c(COC)c2)CC1` was tested. Which AC50 did it give?
Answer: Its AC50 is 3.87 µM.

Question: `CCC(=O)NC(c1ccc(Cl)cc1Cl)c1ccc2cccnc2c1O` (configuration not stated) was tested. Which AC50 did it give?
Answer: The AC50 was 1.19 µM.

Question: How did the AC50 turn out when `CCN(c1ccccc1)S(=O)(=O)c1ccc(Cl)c(NC(=O)CN(C)Cc2cccc(F)c2)c1` was run?
Answer: The AC50 was 8.78 µM.
